In US20230136215A1, “PRODUCTION OF DUNALIELLA” (University of Greenwich, priority 2017, published 2023):

What was measured:
D. salina cultures = D. salina cultures treated with herbicides; carotenoid contents determined by HPLC; type: cell-based, Dunaliella salina; conditions: for yield of phytoene, red light versus white light: herbicide-treated cultures, Table 4; for 9-cis/all-trans β-carotene ratio: norflurazon-treated; for content of phytoene per cell: continuous white LED light ~200 μmol m^−2 s^−1, 25° C.
[1] = Effect of red and blue LED light on all-trans β-carotene dissolved in chloroform; type: physicochemical; conditions: 2.4 μM in chloroform, 24 h, 25° C.
Experimental: FIGS. 10A-10C: Effect of red and blue LED light on all-trans β-carotene. (FIG. 10A) Red light under nitrogen; (FIG. 10B) Red light in air; (FIG. 10C) Blue light in air. All-trans-β-carotene (Sigma) was dissolved in chloroform to a final concentration of 2.4 μM and vials were thoroughly flushed with either nitrogen or air, sealed and incubated for 24 h at 25° C. under LED lights. (FIG. 10A) red, nitrogen; (FIG. 10B), red, air; (FIG. 10C) blue, nitrogen or air. The same results as (FIG. 10A) were obtained for dark under nitrogen or air. […] In (FIG. 10A) (red light under nitrogen) no reaction of β-carotene was detected.

[2] = Table 5, red light, 200 μmol m^−2 s^−1, 48 h
[3] = red light 200 pmol m^−2 s^−1 continuous, 48 h, chlorpropham 10 μM, Norflurazon 5 µM
[4] = red light 200 μmol m^−2 s^−1 continuous, 48 h, chlorpropham 10 μM, Norflurazon 5 µM
[5] = white LED light 200 pmol m^−2 s^−1 continuous, 48 h, chlorpropham 10 μM, Norflurazon 5 µM
[6] = white LED light 200 μmol m^−2 s^−1 continuous, 48 h, chlorpropham 10 μM, Norflurazon 5 µM
[7] = 20 μM chlorpropham, 6-days cultivation in white LED light
[8] = 20 μM chlorpropham, white light 1500 μmol m^−2 s^−1, 4 days' cultivation
[9] = Table 5 (red light), 1500 μmol m^−2 s^−1, 96 h
[10] = Table 5, red light, 200 μmol m^−2 s^−1, 144 h

For O=C(Nc1ccc(F)cc1F)c1cccnc1Oc1cccc(C(F)(F)F)c1 [Diflufenican, N-(2,4-difluorophenyl)-2-[3-(trifluoromethyl)phenoxy]pyridine-3-carboxamide], the “9-cis β-carotene” value (D. salina cultures; [2]) was 10.84 ± 0.19 pg cell^−1, the 9cis of total (D. salina cultures; [2]) was 38% and the “All-trans α-carotene” value (D. salina cultures; [2]) was 0.34 ± 0.00 pg cell^−1. For the same molecule, the “All-trans β-carotene” value (D. salina cultures; [2]) was 2.98 ± 0.11 pg cell^−1, the Phytoene (D. salina cultures; [2]) was 12.78 ± 0.40 pg cell^−1 and the Phytofluene (D. salina cultures; [2]) was 0.01 ± 0.00 pg cell^−1. For the same molecule, the “Total carotenoids (sum)” value (D. salina cultures; [2]) was 28.64 pg cell^−1, the lutein (D. salina cultures; [2]) was 0.56 ± 0.01 pg cell^−1 and the “phytoene + phytofluene of total” value (D. salina cultures; [2]) was 45%. For the same molecule, the zeaxanthin (D. salina cultures; [2]) was 1.13 ± 0.06 pg cell^−1.
For CNc1cnn(-c2cccc(C(F)(F)F)c2)c(=O)c1Cl [Norflurazon, 4-chloro-5-methylamino-2-(3-trifluoromethylphenyl)-pyridazin-3(2H)one], the “yield of phytoene, red light versus white light” value (D. salina cultures; 48 h) was “more than doubled”, the “amount of phytoene produced under red light compared to white light” value (D. salina cultures; norflurazon 5 and 50 μM, 200 μmol m^−2 s^−1, 25° C., 48 h) was “significantly higher” and the “9-cis/all-trans β-carotene ratio” value (D. salina cultures; red LED light 200 μmol m^−2 s^−1, 25° C., 48 h) was 3.9. For the same molecule, the “9-cis/all-trans β-carotene ratio” value (D. salina cultures; white LED light 200 μmol m^−2 s^−1, 25° C., 48 h) was 1.8, the “9-cis β-carotene” value (D. salina cultures; [3]) was 11.89 ± 0.83 pg cell^−1 and the zeaxanthin (D. salina cultures; [3]) was 1.12 ± 0.06 pg cell^−1. For the same molecule, the 9cis of total (D. salina cultures; [4]) was 38%, the Phytoene (D. salina cultures; [4]) was 14.42 ± 0.95 pg cell^−1 and the Phytofluene (D. salina cultures; [4]) was 0.02 ± 0.00 pg cell^−1. For the same molecule, the “Total carotenoids (sum)” value (D. salina cultures; [4]) was 31.55 pg cell^−1, the lutein (D. salina cultures; [4]) was 0.62 ± 0.02 pg cell^−1 and the “phytoene + phytofluene of total” value (D. salina cultures; [4]) was 46%. The “9-cis β-carotene” value (D. salina cultures; [5]) was 7.65 ± 0.67 pg cell^−1, the zeaxanthin (D. salina cultures; [5]) was 0.80 ± 0.07 pg cell^−1 and the 9cis of total (D. salina cultures; [6]) was 37%. The Phytoene (D. salina cultures; [6]) was 7.07 ± 0.36 pg cell^−1, the Phytofluene (D. salina cultures; [6]) was 0.01 ± 0.00 pg cell^−1 and the “Total carotenoids (sum)” value (D. salina cultures; [6]) was 20.6 pg cell^−1. The lutein (D. salina cultures; [6]) was 0.52 ± 0.02 pg cell^−1 and the “phytoene + phytofluene of total” value (D. salina cultures; [6]) was 34%.
For CC1=C(/C=C/C(C)=C/C=C/C(C)=C/C=C/C=C(C)/C=C/C=C(C)/C=C/C2=C(C)CCCC2(C)C)C(C)(C)CCC1 [all-trans β-carotene, all-trans-β-carotene], the “destruction of all-trans β-carotene” value ([1]; blue light, nitrogen or air) was “fully destroyed”, the “destruction of all-trans β-carotene” value ([1]; red light under air) was 40% and the “reaction of β-carotene” value ([1]; red light under nitrogen) was “no reaction”.
For Nc1cc(Cl)nc(C(=O)O)c1Cl [aminopyralid, 4-amino-3,6-dichloropyridine-2-carboxylic acid], the “content of phytoene per cell” value (D. salina cultures) was “increased”.
For CCNC(=O)[C@@H](C)OC(=O)Nc1ccccc1 [carbetamide, (R)-1-(ethylcarbamoyl)ethyl carbanilate], the “content of phytoene per cell” value (D. salina cultures) was “increased”.
With CC(C)OC(=O)Nc1cccc(Cl)c1 [chlorpropham, isopropyl N-(3-chlorophenyl) carbamate] the “final phytoene concentration in the cultures” value (D. salina cultures; [7]) was 3.55 ± 0.11 mg/L, the “phytoene content in cells” value (D. salina cultures; [7]) was 25.76±1.58 pg cell^−1 and the “increase of phytoene content in cells” value (D. salina cultures; 20 μM chlorpropham, 6-days cultivation in white LED light, compared to untreated cells) was “ca. 50 fold”. The “increase of final phytoene concentration in the cultures” value (D. salina cultures; 20 μM chlorpropham, 6-days cultivation in white LED light, compared to untreated cultures) was 10 fold, the phytoene content (D. salina cultures; [8]) was “above 30 pg cell^−1” and the phytoene yield (D. salina cultures; [8]) was 8.2 mg/L. The “9-cis β-carotene” value (D. salina cultures; [9]) was 6.96 ± 0.74 pg cell^−1, the 9cis of total (D. salina cultures; [9]) was 12% and the “All-trans α-carotene” value (D. salina cultures; [9]) was 0.44 ± 0.07 pg cell^−1. For the same molecule, the “All-trans β-carotene” value (D. salina cultures; [9]) was 17.34 ± 0.97 pg cell^−1, the Phytoene (D. salina cultures; [9]) was 30.62 ± 1.31 pg cell^−1 and the Phytofluene (D. salina cultures; [9]) was 1.87 ± 0.12 pg cell^−1. The “Total carotenoids (sum)” value (D. salina cultures; [9]) was 58.61 pg cell^−1, the lutein (D. salina cultures; [9]) was 0.61 ± 0.03 pg cell^−1 and the “phytoene + phytofluene of total” value (D. salina cultures; [9]) was 55%. The zeaxanthin (D. salina cultures; [9]) was 0.77 ± 0.02 pg cell^−1, the “9-cis β-carotene” value (D. salina cultures; [10]) was 31.3 ± 2.49 pg cell^−1 and the 9cis of total (D. salina cultures; [10]) was 29%. For the same molecule, the “All-trans α-carotene” value (D. salina cultures; [10]) was 1.4 ± 0.13 pg cell^−1, the “All-trans β-carotene” value (D. salina cultures; [10]) was 18.34 ± 1.45 pg cell^−1 and the Phytoene (D. salina cultures; [10]) was 51.88 ± 4.53 pg cell^−1. The Phytofluene (D. salina cultures; [10]) was 3.02 ± 0.29 pg cell^−1, the “Total carotenoids (sum)” value (D. salina cultures; [10]) was 108.48 pg cell^−1 and the lutein (D. salina cultures; [10]) was 1.21 ± 0.09 pg cell^−1. For the same molecule, the “phytoene + phytofluene of total” value (D. salina cultures; [10]) was 51%, the zeaxanthin (D. salina cultures; [10]) was 1.33 ± 0.10 pg cell^−1 and the “increase of cellular content of colorless carotenoids” value (D. salina cultures; compared to untreated cultures) was “more than 30 fold”. For the same molecule, the “increase of yield of the colorless carotenoids” value (D. salina cultures; compared to untreated cultures) was “more than 10 fold”, the “yield of phytoene, red light versus white light” value (D. salina cultures; 48 h) was “more than doubled” and the Cell density (D. salina cultures; once chlorpropham was added) was “stopped increasing”. The “9-cis β-carotene” value (D. salina cultures; [3]) was 14.35 ± 1.24 pg cell^−1, the zeaxanthin (D. salina cultures; [3]) was 1.05 ± 0.06 pg cell^−1 and the 9cis of total (D. salina cultures; [4]) was 39%. The Phytoene (D. salina cultures; [4]) was 10.56 ± 1.53 pg cell^−1, the Phytofluene (D. salina cultures; [4]) was 1.58 ± 0.17 pg cell^−1 and the “Total carotenoids (sum)” value (D. salina cultures; [4]) was 36.7 pg cell^−1. The lutein (D. salina cultures; [4]) was 0.74 ± 0.05 pg cell^−1, the “phytoene + phytofluene of total” value (D. salina cultures; [4]) was 33% and the “phytoene contents under red light versus white light” value (D. salina cultures; same concentration of chlorpropham treatment) was “higher”. For the same molecule, the “optimal concentration range of chlorpropham added to the cultures (phytoene production)” value (D. salina cultures; tested 0, 0.1, 1, 10, 20, 50 and 100 μM, 25° C.) was 10 to 50 µM, the “9-cis β-carotene” value (D. salina cultures; [5]) was 13.35 ± 1.88 pg cell^−1 and the zeaxanthin (D. salina cultures; [5]) was 0.84 ± 0.09 pg cell^−1. It also gave a 9cis of total (D. salina cultures; [6]) of 43%, a Phytoene (D. salina cultures; [6]) of 4.41 ± 0.65 pg cell^−1 and a Phytofluene (D. salina cultures; [6]) of 0.67 ± 0.09 pg cell^−1. For the same molecule, the “Total carotenoids (sum)” value (D. salina cultures; [6]) was 30.99 pg cell^−1, the lutein (D. salina cultures; [6]) was 0.83 ± 0.13 pg cell^−1 and the “phytoene + phytofluene of total” value (D. salina cultures; [6]) was 16%.
With COc1nc(C)nc(NC(=O)NS(=O)(=O)c2ccccc2Cl)n1 [chlorsulfuron, 1-(2-chlorophenyl)sulfonyl-3-(4-methoxy-6-methyl-1,3,5-triazin-2-yl)urea] the “content of phytoene per cell” value (D. salina cultures) was “increased”.
With O=C(O)CNCP(=O)(O)O [glyphosate, 2-(phosphonomethylamino)acetic acid] the “content of phytoene per cell” value (D. salina cultures) was “increased”.
